Assay results taken from publication PMC9503009, “Determining Ligand and Ion-Induced Conformational Changes in Serotonin Transporter with Its Fluorescent Substrates” (International Journal of Molecular Sciences, 2022).
Read-outs that look alike come from different tables or passages of the source.

Tests used:
Type in all cases: cell-based
[1] = target: T1, SERT S404C/C109A (Rattus norvegicus, UniProt P31652, C109A/S404C); test: MTSET inhibition of APP+ uptake in live cells (extracellular pathway cysteine accessibility)
T1 construct: expressed in transfected cells
Protocol: (§1) Figure 3 Reactivity of the extracellular cysteine mutants with MTSET. (A) MTSET concentration-dependent inhibition of APP^+ uptake. The cells stably expressing C109A, Y107C/C109C, or S404C/C109A were incubated for 15 min with indicated concentrations of MTSET. The MTSET concentration giving half-maximal inhibition of APP^+ accumulation in the cells was used to calculate inactivation rate constants as plotted in (B). […] Representative images of APP^+ uptake by C109A, Y107C/C109A, or S404C/C109A under various MTSET concentrations were shown in Supplemental Figure S1. […] (B) Rate constants of MTSET inhibition of APP^+ uptake. At the half-maximal concentration, the half-time is the assay time (15 min) and the first-order rate constant is 7.7 × 10^−4 s^−1. This rate constant was divided by the half maximal MTSET concentration from (A) to obtain the pseudo first-order modification rate constant. Error bars represent SEM of three experiments.
(§2) The cells stably expressing Y107C/C109A or S404C/C109A were preincubated with indicated ligands and MTSET at a concentration of 0.01 mM for Y107C/C109A or 0.002 mM for S404C/C109A at 22 °C for 15 min, respectively. At the end of this incubation, cells were washed free of MTSET and ligands into KRH buffer containing NaCl and APP^+. APP^+ uptake was measured as described under “Materials and Methods”. Error bars represent SEM from three experiments. Asterisks and hashtags indicate statistically significant changes (p < 0.05) in the accumulated APP^+ fluorescence compared with the corresponding control (MTSET alone).
Accessibility of the cysteine residues in the extracellular pathway was measured by reactivity of Y107C/C109A and S404C/C109A mutants with MTSET. The cells stably expressing Y107C/C109A or S404C/C109A were incubated with MTSET over a range of concentrations in HEPES buffer containing indicated ligands or ions at 22 °C for 15 min. After excess MTSET and ligands were removed by rapid 3 × washing with the same buffer, the cells were then incubated with APP^+ at a final concentration of 2 μM in KRH buffer at 22 °C for another 5 min. The extent of APP^+ accumulated in the cells was determined by confocal imaging analysis in the live cells. To measure the effects of antidepressants, substrate 5-HT, or other ligands such as 5-HTP or tryptophan, where added, was present at 10 μM. To measure the effects of ions, 150 mM […] (NMDG) gluconate, and NMDG chloride, sodium isethionate, or NaCl was used as indicated. These measurements of reactivity depend on the ability of MTSET to inactivate APP^+ transport activity by an allosteric mechanism. The MTSET concentration causing half-maximal inactivation was determined and used to calculate the rate constant for cysteine modification, as described previously.

[2] = target: T2, SERT Y107C/C109A (Rattus norvegicus, UniProt P31652, C109A/Y107C); test: as above
T2 construct: expressed in transfected cells
Protocol: as §1
(A) MTSET concentration-dependent inhibition of APP^+ uptake. […] After washing to remove excess MTSET and ligands, APP^+ uptake was measured as described under “Materials and Methods”. […] (B) Rate constants of MTSET inhibition of APP^+ uptake. The IC50 values of MTSET inhibition were used to calculate rate constants as described under “Materials and Methods”. Error bars represent SEM from three experiments.
as §2
The cells stably expressing Y107C/C109A were treated at 22 °C for 15 min with indicated concentrations of MTSET in the absence or presence of 10 μM vilazodone. After washing to remove excess MTSET and vilazodone, APP^+ uptake was measured as described under “Materials and Methods”. […] The IC50 values of MTSET inhibition were used to calculate rate constants as described under “Materials and Method”. Error bars represent SEM from three experiments. […] After washing to remove excess MTSEA and vilazodone, ASP^+ binding was measured as described under “Materials and Methods”. […] The IC50 values of MTSEA inhibition of ASP^+ binding were converted to rate constants.

[3] = target: T3, SERT S277C/X5C (Rattus norvegicus, UniProt P31652, C109A/C15A/C21A/C357I/C622A/S277C); test: MTS reagent inhibition of ASP+ binding in digitonin-permeabilized cells (cytoplasmic pathway cysteine accessibility)
T3 construct: expressed in transfected cells
Protocol: After 3 × rapid washing with KRH buffer, APP^+ or ASP^+ accumulation was measured as described under “Materials and Methods”. […] These representative images were parallelly acquired from one experiment. […] After 3 × washing, ASP^+ binding to the cell membrane was measured as described under “Materials and Methods”. […] (D) The effects of MTSET on ASP^+ binding of S277C/X5C and X5C. […] After 3 × rapid washing, ASP^+ binding was measured as described under “Materials and Methods”.
After washing to remove excess MTSEA and ligands, ASP^+ binding was measured as described under “Materials and Methods”. […] The IC50 values of MTSEA inhibition of ASP^+ binding were converted to rate constants.
The cells stably expressing Y107C/C109A were treated at 22 °C for 15 min with indicated concentrations of MTSET in the absence or presence of 10 μM vilazodone. After washing to remove excess MTSET and vilazodone, APP^+ uptake was measured as described under “Materials and Methods”. […] The IC50 values of MTSET inhibition were used to calculate rate constants as described under “Materials and Method”. Error bars represent SEM from three experiments. […] After washing to remove excess MTSEA and vilazodone, ASP^+ binding was measured as described under “Materials and Methods”. […] The IC50 values of MTSEA inhibition of ASP^+ binding were converted to rate constants. […]
For cytoplasmic pathway accessibility, measurements were performed with the cells stably expressing S277C/X5C. […] The cells, then, were washed free of unreacted MTSEA and ligands, ASP^+ binding was measured by adding 500 μL KRH buffer containing 10 μM ASP^+ and incubating at 22 °C for 5 min. Excess ASP^+ was removed by 3 × rapid washing with KRH buffer and ASP^+ fluorescence retained in the cell membrane was measured by confocal imaging analysis in the permeabilized cells. […] The MTSEA IC50 value was determined and used to calculate the rate constant for S277C/X5C modification.

[4] = target: T2, SERT Y107C/C109A; test: Kinetic analysis of APP+ or ASP+ uptake by fluorescence imaging in stably expressing cells; conditions: 22 °C, 5 min
[5] = target: T4, WT-SERT (Rattus norvegicus, UniProt P31652); test: as above; conditions: 22 °C, 5 min, mean ± SEM of three experiments
T4 construct: expressed in transfected cells
Protocol: Figure 1 Kinetic analysis and ion requirements for APP^+ or ASP^+ uptake by SERT. (A) Kinetic analysis for APP^+ or ASP^+ uptake by SERT. […] After washing to remove excess APP^+ or ASP^+, the accumulated fluorescence within the cells (n ≥ 30) were counted and normalized to the cell areas, as described under “Materials and Methods”. […] (B) Ion-dependence of APP^+ or ASP^+ uptake. APP^+ or ASP^+ uptake was measured by incubating the cells stably expressing WT- SERT with APP^+ at 2 μM or ASP^+ at 10 μM in HEPES buffer containing 150 mM NMDGCl, sodium isethionate, or NaCl, respectively. Error bars represent SEM of three experiments.
The cells stably expressing SERT-WT or mutants were wet mounted on polylysine-coated glass slides and applied for indicated treatments. In brief, the cells were washed twice with 500 μL KRH buffer containing 20 mM HEPES, pH 7.4, 120 mM NaCl, 1.3 mM KCl, 2.2 mM CaCl2, 1.2 mM MgSO4, and 0.1% (w/v) glucose. APP^+ or ASP^+ accumulation was measured by adding 500 μL KRH buffer containing 2 μM APP^+ or 10 μM ASP^+ and incubating for 5 min at 22 °C. Excess APP^+ or ASP^+ was then removed by rapid washing three times with 500 μL KRH buffer. The extent of APP^+ or ASP^+ accumulated in the cells was determined with confocal imaging analysis.
Images were acquired at 22 °C using a 20 or 60 × water immersion objective with the Zeiss LSM 900 confocal microscope. APP^+ and ASP^+ were excited by an argon laser with excitation peak at 488 nm. APP^+ fluorescence was captured at 490–565 nm and ASP^+ fluorescence at 600–650 nm. Images were analyzed using National Institutes of Health ImageJ v1.53q. Fluorescence intensity in each cell was counted and normalized to the cell area (mean fluorescence). To obtain ASP^+ binding on the cell surface, intracellular ASP^+ fluorescence intensity was subtracted from total fluorescence in each cell, and the resulting ASP^+ fluorescence on the cell surface was then normalized to the cell membrane area.

[6] = target: T3, SERT S277C/X5C; test: as above; conditions: for Km / Vmax: uptake by cells stably expressing S277C/X5C, 22 °C, 5 min
[7] = target: T1, SERT S404C/C109A; test: as above; conditions: for Km / Vmax: uptake by cells stably expressing S404C/C109A, 22 °C, 5 min
[8] = S404C/C109A, MTSET 0.002 mM, ligand 10 μM, 22 °C, 15 min
[9] = Y107C/C109A, MTSET 0.01 mM, ligand 10 μM, 22 °C, 15 min

With `NCCc1c[nH]c2ccc(O)cc12` [5-HT, 5-hydroxytrypatamine] the “effect of ligand on reactivity with MTSET” value (shortened to “effect of ligand”) [1, 8] was “significantly decreased the reactivity”, the “decrease of MTSET rate constant compared with control” value ([2]; Y107C/C109A, 10 μM ligand with Na+ and Cl−, control MTSET alone) was ~2 folds and the “effect of ligand” value [2, 9] was “significantly decreased the reactivity”. The “increase of rate constant of MTSEA modification compared with control” value ([3]; S277C/X5C, 10 μM ligand in the presence of NaCl, 25 μg/mL digitonin) was ~ 2 folds.
`N[C@@H](Cc1c[nH]c2ccc(O)cc12)C(=O)O` [5-HTP, 5-hydroxytryptophan] was tested, and the “effect of ligand” value [1] was “little effect on the reactivity” and the “effect of ligand” value [2] was “little effect on the reactivity”.
`CN(C)c1ccc(-c2cc[n+](C)cc2)cc1` [APP^+, 4-[4-(dimethylamino)phenyl]-1-methylpyridinium] was tested, and the Km [4] was 2.39 ± 0.04 µM, the Vmax [4] was 39.4 ± 1.8 AFU and the Km [5] was 2.63 ± 0.06 µM. For the same compound, the Vmax [5] was 30.5 ± 1.4 AFU, the Km [6] was 1.99 ± 0.05 µM and the Vmax [6] was 26.5 ± 1.1 AFU. The Km [7] was 2.07 ± 0.04 µM and the Vmax [7] was 34.9 ± 1.2 AFU.
`CN(C)c1ccc(C=Cc2cc[n+](C)cc2)cc1` [ASP^+, 4-(4-(dimethylamino)styryl)-N-methylpyridinium] showed a Km [4] of 9.32 ± 0.48 µM, a Vmax [4] of 59.9 ± 4.2 AFU and a Km [5] of 8.52 ± 0.15 µM. The Vmax [5] was 75.8 ± 5.3 AFU, the “Vmax value relative to the WT” value ([6]; S277C/X5C, ASP+ as substrate) was ~50% and the Km [6] was 9.66 ± 0.94 µM. The Vmax [6] was 40.2 ± 3.0 AFU, the “Vmax value relative to the WT” value ([7]; S404C/C109A, ASP+ as substrate) was ~70% and the Km [7] was 8.87 ± 0.59 µM. For the same compound, the Vmax [7] was 53.2 ± 3.8 AFU.
`N[C@@H](Cc1c[nH]c2ccccc12)C(=O)O` [Trp, tryptophan] was tested, and the “effect of ligand” value [1] was “little effect on the reactivity” and the “effect of ligand” value [2] was “little effect on the reactivity”.
In the case of `CN(C)CCCN1c2ccccc2CCc2ccccc21` [imipramine], the “effect of ligand” value [1, 8] is reported as “markedly increased the reactivity” and the “effect of ligand” value [2, 9] is reported as “markedly increased the reactivity”.
With `N#Cc1ccc2[nH]cc(CCCCN3CCN(c4ccc5oc(C(N)=O)cc5c4)CC3)c2c1` [vilazodone] the “effect on Cys107 reactivity with MTSET” value ([2]; intact cells expressing Y107C/C109A, 10 μM vilazodone) was “increased Cys107 reactivity” and the “effect on Cys277 reactivity with MTSEA” value ([3]; digitonin-permeabilized cells expressing S277C/X5C, 10 μM vilazodone) was “decreased Cys277 reactivity”.
